The nature of series [1]: Stability in human liver microsomes assessed as parent compound remaining at 15 uM in absence of NADPH incubated for 60 mins. It counts as ADME, Microsome. The note with it: liver microsomes, read-out: Stability. For orientation: Liver microsomes are a subcellular fraction often used to study metabolism.
A short description of series [2]: Stability in mouse liver microsomes assessed as parent compound remaining at 15 uM in presence of NADPH incubated for 60 mins. It counts as ADME, Microsome. To be noted: read-out: Stability.
A further series has as its target CYP2D6 (Homo sapiens, UniProt P10635). Description: Inhibition of CYP2D6 (unknown origin) at 10 uM relative to control. It counts as ADME.
Series [3] can be described thus: Inhibition of human recombinant beta-tryptase pre-incubated for 3 hrs before N-tert-butoxycarbonyl-Gln-Ala-Arg-AMC substrate addition and measured every 30 secs for 15 mins by spectrometry.
Series [4] can be described thus: Stability in rat liver microsomes assessed as parent compound remaining at 15 uM in presence of NADPH incubated for 60 mins. Format: ADME, Microsome. To be noted: read-out: Stability.
A short description of series [5]: Stability in rat liver microsomes assessed as parent compound remaining at 15 uM in absence of NADPH incubated for 60 mins. It counts as ADME, Microsome. The note with it: read-out: Stability.
Series [6] in a line: Effective permeability assessed as mass retention by PAMPA method. Format: ADME. On the technique in general: The PAMPA barrier holds no transporters, so it reflects passive diffusion.
Another series addresses CYP2C9 (Homo sapiens, UniProt P11712). As to the kind of experiment: Inhibition of CYP2C9 (unknown origin) at 10 uM relative to control. It counts as ADME.
A short description of series [7]: Dissociation constant, pKa of the compound (NH3*) by pH metric assay. It counts as physicochemical.
Series [8] is described as follows: Apparent permeability from apical to basolateral side in MDCK cells. It counts as ADME, cell-based, Canis lupus familiaris. The note with it: dog.
The target of the next series is T1, CYP1A2 (Homo sapiens, UniProt P05177).
T1 sequence (P05177 whole entry): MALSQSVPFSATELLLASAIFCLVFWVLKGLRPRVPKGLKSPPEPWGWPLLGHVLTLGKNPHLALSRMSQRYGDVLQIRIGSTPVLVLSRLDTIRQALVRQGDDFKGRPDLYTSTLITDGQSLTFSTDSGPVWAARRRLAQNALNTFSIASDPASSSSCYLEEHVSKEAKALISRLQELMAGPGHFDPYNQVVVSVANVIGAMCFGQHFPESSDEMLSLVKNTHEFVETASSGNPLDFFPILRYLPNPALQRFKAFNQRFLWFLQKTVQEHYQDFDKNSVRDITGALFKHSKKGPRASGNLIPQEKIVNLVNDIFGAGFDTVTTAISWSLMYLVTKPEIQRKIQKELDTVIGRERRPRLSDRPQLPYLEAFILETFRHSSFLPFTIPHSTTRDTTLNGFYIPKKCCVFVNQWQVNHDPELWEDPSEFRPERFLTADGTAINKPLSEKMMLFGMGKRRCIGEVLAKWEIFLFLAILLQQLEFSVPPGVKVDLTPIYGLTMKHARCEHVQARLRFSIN
As to the kind of experiment: Inhibition of CYP1A2 (unknown origin) at 10 uM relative to control. It counts as ADME.

Series [9] can be described thus: Stability in human liver microsomes assessed as parent compound remaining at 15 uM in presence of NADPH incubated for 60 mins. Format: ADME, Microsome. The note with it: liver microsomes, read-out: Stability.
A short description of series [10]: Dissociation constant, pKa of the compound (OH) by UV metric assay. Format: physicochemical.
A short description of series [11]: Stability in mouse liver microsomes assessed as parent compound remaining at 15 uM in absence of NADPH incubated for 60 mins. Format: ADME, Microsome. The note with it: read-out: Stability.
The target of the next series is CYP3A4 (Homo sapiens, UniProt P08684). As to the kind of experiment: Inhibition of CYP3A4 (unknown origin) at 10 uM relative to control. It counts as ADME.
CYP3A4, sequence (P08684 whole entry): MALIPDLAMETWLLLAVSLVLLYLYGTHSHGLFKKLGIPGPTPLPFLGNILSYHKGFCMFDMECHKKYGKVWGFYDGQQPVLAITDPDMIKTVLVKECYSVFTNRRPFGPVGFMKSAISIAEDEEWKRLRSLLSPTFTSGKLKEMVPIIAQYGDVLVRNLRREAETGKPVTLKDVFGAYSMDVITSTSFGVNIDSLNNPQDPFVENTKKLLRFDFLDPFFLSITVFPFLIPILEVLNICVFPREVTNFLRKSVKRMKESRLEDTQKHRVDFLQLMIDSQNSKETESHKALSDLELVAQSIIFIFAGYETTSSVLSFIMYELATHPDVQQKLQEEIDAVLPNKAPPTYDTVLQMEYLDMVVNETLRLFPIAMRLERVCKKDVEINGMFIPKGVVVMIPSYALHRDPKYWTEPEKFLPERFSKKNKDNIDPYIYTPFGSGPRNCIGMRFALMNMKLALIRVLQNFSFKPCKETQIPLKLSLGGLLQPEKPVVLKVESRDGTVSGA
The nature of series [12]: Dissociation constant, pKa of the compound (OH) by pH metric assay. Format: physicochemical.
Series [13] in a line: Effective permeability from apical to basolateral side in PAMPA method. The note with it: read-out: Peff. Format: ADME.
The target of another series is CYP2C19 (Homo sapiens, UniProt P33261). Description: Inhibition of CYP2C19 (unknown origin) at 10 uM relative to control. It counts as ADME.
CYP2C19, sequence (P33261 whole entry): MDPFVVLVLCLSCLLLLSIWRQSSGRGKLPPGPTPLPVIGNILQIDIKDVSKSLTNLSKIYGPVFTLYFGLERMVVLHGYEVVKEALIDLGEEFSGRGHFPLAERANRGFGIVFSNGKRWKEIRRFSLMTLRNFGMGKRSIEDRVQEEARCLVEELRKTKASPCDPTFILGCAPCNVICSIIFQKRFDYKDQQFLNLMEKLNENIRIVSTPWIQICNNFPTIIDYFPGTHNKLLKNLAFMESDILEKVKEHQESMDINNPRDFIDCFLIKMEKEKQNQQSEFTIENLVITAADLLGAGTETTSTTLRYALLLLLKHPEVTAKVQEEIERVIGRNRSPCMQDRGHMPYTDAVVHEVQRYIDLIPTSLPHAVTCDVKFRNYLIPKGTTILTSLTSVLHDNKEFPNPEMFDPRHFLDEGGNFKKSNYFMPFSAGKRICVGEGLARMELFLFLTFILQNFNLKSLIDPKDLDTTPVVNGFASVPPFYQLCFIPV
Series [14] can be described thus: Plasma concentration in mouse xenografted with human HMC1 cells at 10 mg/kg, iv dosed at time 0 and again 24 hrs later and measured at 2 hrs after second dose by LC-MS/MS analysis. It counts as ADME, organism-based. For orientation: A xenograft is tissue or cells of one species grown in another, often human tumour cells in immunodeficient mice.
The nature of series [15]: Drug concentration in tumor of mouse xenografted with human HMC1 cells at 10 mg/kg, iv dosed at time 0 and again 24 hrs later and measured at 8 hrs after second dose by LC-MS/MS analysis. Format: ADME, organism-based, Neoplasm. The note with it: read-out: Drug uptake.
The nature of series [16]: Drug concentration in tumor of mouse xenografted with human HMC1 cells at 10 mg/kg, iv dosed at time 0 and again 24 hrs later and measured at 24 hrs after second dose by LC-MS/MS analysis. To be noted: read-out: Drug uptake. Format: ADME, organism-based, Neoplasm.
Series [17] in a line: Drug concentration in tumor of mouse xenografted with human HMC1 cells at 10 mg/kg, iv dosed at time 0 and again 24 hrs later and measured at 0 hrs after second dose by LC-MS/MS analysis. Format: ADME, organism-based, Neoplasm. To be noted: read-out: Drug uptake.
Series [18] can be described thus: Plasma concentration in mouse xenografted with human HMC1 cells at 10 mg/kg, iv dosed at time 0 and again 24 hrs later and measured at 8 hrs after second dose by LC-MS/MS analysis. Format: ADME, organism-based.
Series [19] can be described thus: Drug concentration in tumor of mouse xenografted with human HMC1 cells at 10 mg/kg, iv dosed at time 0 and again 24 hrs later and measured at 2 hrs after second dose by LC-MS/MS analysis. Format: ADME, organism-based, Neoplasm. To be noted: read-out: Drug uptake.
The nature of series [20]: Plasma concentration in mouse xenografted with human HMC1 cells at 10 mg/kg, iv dosed at time 0 and again 24 hrs later and measured at 24 hrs after second dose by LC-MS/MS analysis. Format: ADME, organism-based.
A short description of series [21]: Half life in C57BL/6 mouse at 5 mg/kg, iv measured over 0.25 to 24 hrs by LC-MS/MS analysis. Format: ADME, organism-based. The note with it: in vivo.
The nature of series [22]: Clearance in C57BL/6 mouse at 5 mg/kg, iv measured over 0.25 to 24 hrs by LC-MS/MS analysis. It counts as ADME, organism-based. To be noted: in vivo.
Another series has as its target T2, Tryptase beta-2 (Mus musculus, UniProt P21845).
T2 sequence (P21845 whole entry): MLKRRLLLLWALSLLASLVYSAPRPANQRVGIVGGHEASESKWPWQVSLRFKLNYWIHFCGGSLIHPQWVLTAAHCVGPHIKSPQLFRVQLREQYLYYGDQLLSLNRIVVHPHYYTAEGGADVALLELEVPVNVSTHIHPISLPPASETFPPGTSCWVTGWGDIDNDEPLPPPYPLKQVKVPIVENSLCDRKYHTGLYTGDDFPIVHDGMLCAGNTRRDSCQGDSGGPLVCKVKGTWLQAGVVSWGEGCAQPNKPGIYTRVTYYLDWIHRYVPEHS
As to the kind of experiment: Inhibition of mouse MCP6 pre-incubated for 3 hrs before N-tert-butoxycarbonyl-Gln-Ala-Arg-AMC substrate addition and measured every 30 secs for 15 mins by spectrometry.

Series [23] can be described thus: Stability in human liver microsomes assessed as parent compound remaining at 15 uM in presence of UDPGA incubated for 60 mins. It counts as ADME, Microsome. To be noted: liver microsomes, read-out: Stability.
Series [24] in a line: Solubility of the compound. It counts as physicochemical.
The nature of series [25]: Tmax in C57BL/6 mouse at 50 mg/kg, po measured over 0.25 to 24 hrs by LC-MS/MS analysis. It counts as ADME, organism-based. The note with it: in vivo.
Series [26] is described as follows: Time for Clast in C57BL/6 mouse at 5 mg/kg, iv measured over 0.25 to 24 hrs by LC-MS/MS analysis. It counts as ADME, organism-based. To be noted: in vivo.
A short description of series [27]: Time for Clast in C57BL/6 mouse at 50 mg/kg, po measured over 0.25 to 24 hrs by LC-MS/MS analysis. Format: ADME, organism-based. The note with it: in vivo.
Series [28] is described as follows: Lipophilicity, logD of the compound at pH 7.4. To be noted: buffer. It counts as physicochemical.
A further series deals with Mus musculus. Description: Inhibition of tryptase activity in tumors of mouse xenografted with human HMC1 cells at 10 mg/kg, iv dosed at time 0 and again 24 hrs later and measured at 24 to 48 hrs after second dose. It counts as functional, organism-based.

Structures are written as SMILES. Active and inactive are the calls of the source. The rule behind the calls is not given here. Bounds are passed on as bounds.

The text below walks through data of ChEMBL document CHEMBL4342466, “Novel, Self-Assembling Dimeric Inhibitors of Human β Tryptase” (J Med Chem, 2020).

CYP2C9, sequence (P11712 whole entry): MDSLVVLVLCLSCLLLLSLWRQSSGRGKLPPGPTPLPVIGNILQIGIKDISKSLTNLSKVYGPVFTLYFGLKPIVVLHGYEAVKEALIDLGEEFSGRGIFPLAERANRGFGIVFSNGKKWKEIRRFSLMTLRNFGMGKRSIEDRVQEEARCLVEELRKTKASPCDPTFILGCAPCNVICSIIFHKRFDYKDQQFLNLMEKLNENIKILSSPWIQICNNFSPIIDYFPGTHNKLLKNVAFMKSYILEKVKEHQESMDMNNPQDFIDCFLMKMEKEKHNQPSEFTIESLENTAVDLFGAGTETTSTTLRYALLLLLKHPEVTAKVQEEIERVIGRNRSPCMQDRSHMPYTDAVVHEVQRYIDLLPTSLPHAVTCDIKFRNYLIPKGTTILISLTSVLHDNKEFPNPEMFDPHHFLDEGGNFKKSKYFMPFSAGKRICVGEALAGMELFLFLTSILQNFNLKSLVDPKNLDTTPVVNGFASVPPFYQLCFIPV
CYP2D6, sequence (P10635 whole entry): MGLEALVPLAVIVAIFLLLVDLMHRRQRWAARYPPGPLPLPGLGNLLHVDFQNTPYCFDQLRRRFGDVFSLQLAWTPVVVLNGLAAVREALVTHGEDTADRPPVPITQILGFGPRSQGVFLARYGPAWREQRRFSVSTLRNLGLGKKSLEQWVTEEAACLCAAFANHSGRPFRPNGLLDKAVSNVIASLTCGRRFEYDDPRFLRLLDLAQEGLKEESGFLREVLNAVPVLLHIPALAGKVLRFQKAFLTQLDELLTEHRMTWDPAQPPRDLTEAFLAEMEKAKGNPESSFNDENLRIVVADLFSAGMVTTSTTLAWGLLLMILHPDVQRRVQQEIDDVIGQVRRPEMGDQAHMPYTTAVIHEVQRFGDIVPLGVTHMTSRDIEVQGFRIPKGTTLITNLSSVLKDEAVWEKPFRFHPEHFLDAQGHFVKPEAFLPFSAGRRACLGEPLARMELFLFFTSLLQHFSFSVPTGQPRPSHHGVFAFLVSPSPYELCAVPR

By inhibition is commonly meant the percentage by which the read-out fell short of the control. Broadly, the IC50 is the concentration that gives 50% inhibition. In general, pKa refers to the negative logarithm of the acid dissociation constant. Low values mean a group that gives up its proton readily, high ones a group that holds its proton tightly. Broadly, the Papp A→B is the apparent permeability from the apical to the basolateral side of a cell layer. Take `NCc1cccc(C2CCN(C(=O)/C=C/c3ccc(O)c(O)c3)CC2)c1`: the remaining at 1 h, 15 µM in series [1] came to 11%; in series [2] it was 18%; in series [4], 37%; in series [5], 73%; in series [9] it was 8%; in series [11], 36%. The inhibition at 10 µM stood at 47% against CYP2D6; 75% against CYP2C9; 18% on CYP1A2; 19% at CYP3A4; 77% on CYP2C19. Further, in series [3], the IC50 stood at 3840 nM. The Activity in series [6] was 26.3%. Moreover, the values for the pKa in series [7], in series [10] and in series [12] were 9.67, 7.37 and 8.11, respectively. Moreover, the Papp A→B in [8] amounted to 0.31 ×10⁻⁶ cm/s. For the same compound, the Papp in series [13] came to 0.01 ×10⁻⁶ cm/s.

On to `NCc1ccc2c(c1)C1(CCN(C(=O)c3cc(O)c(O)c(Cl)c3)CC1)CO2.O=C(O)C(F)(F)F`, for which the concentration at 2 h came out at 311 nM in series [14] and 314 nM in series [19]. Also, the values for the concentration at 8 h in series [15] and in series [18] were 58.6 nM and 1.28 nM, respectively. Moreover, the concentration at 24 h in series [16] was determined as 8.64 nM; in [20], 0.02 nM. Further, the concentration at 0 h in series [17] was found to be 17.6 nM.

As usually defined, the half-life is how long it takes for the measured level to halve. A low value points to rapid decline. As usually defined, the clearance is the volume of plasma or blood freed of the substance per unit of time. A lower clearance goes with a low capacity for elimination. For the compound `NCc1cccc(C2CCN(C(=O)c3cccc(-c4cccc(B(O)O)c4)c3)CC2)c1`, the remaining at 1 h, 15 µM in series [1] was determined as 1%; in series [9] it was 2%; in series [23] it was 1%. The IC50 was 843 nM in series [3] and 1420 nM on Tryptase beta-2. The same compound showed a half-life in series [21] of 3.6 h. The compound also had a clearance in series [22] of 52.5 mL/min/kg.

The term Tmax denotes the time from dosing to the highest level. Regarding `NCc1ccc2c(c1)C1(CCN(C(=O)c3cc(O)c(O)c(Cl)c3)CC1)CO2`, the figures for the IC50 (in series [3]; on Tryptase beta-2) were 238 nM and 11700 nM, respectively. Moreover, the solubility entry in series [24] is “Soluble”. The compound further gave a half-life in series [21] greater than 6 h. For the same compound, the time to peak (Tmax) in series [25] was determined as 0.25 h. The Time amounted to 8 h in series [26] and 24 h in [27].

A word on the logD: it is lipophilicity at a set pH, counting ionised and neutral species. With `NCc1ccc2c(c1)C1(CCN(C(=O)c3cccc(-c4cccc(B(O)O)c4)c3)CC1)CO2`, the remaining at 1 h, 15 µM came to 85% in series [1], 96% in series [9] and 94% in series [23]. The IC50 in series [3] worked out at 1220 nM; at Tryptase beta-2, 1140 nM. The compound also gave a logD in series [28] of 1.22. In addition, in series [24], the solubility result was “Soluble”. Also, in series [21], the half-life was greater than 6 h. Besides, in series [25], the Tmax amounted to 0.5 h. In addition, the Time in series [26] is 24 h; in [27], 8 h.

With `NCc1ccc2c(c1)C1(CCN(C(=O)c3cccc(-c4cccc5c4COB5O)c3)CC1)CO2`, the IC50 in [3] is 1500 nM; against Tryptase beta-2, 2890 nM. The compound also came in with a logD in series [28] of 1.69. Moreover, the remaining at 1 h, 15 µM in series [9] and in [23] was 82% in each case. Moreover, the inhibition result with Mus musculus is “inactive”.
